Data published in US20160229893A1, “Novel Peptide Compound for Inhibiting Restenosis and Promoting Re-Endothelialization and Method for Preparing the Same” (Chonnam National University Hospital, priority 2014, published 2016).

System: vascular smooth muscle cell (SMC)
Assay: Effect on proliferation of vascular smooth muscle cell (SMC), XTT assay
Assay type: cell-based
Conditions: 1 uM; XTT absorbance at 450 nm at 1, 4 and 7 days; versus untreated control (FIG. 1)
Description: As cells used in a cell culture, the vascular smooth muscle cell (SMC) which is a smooth muscle cell, and the human umbilical vein endothelial cell (HUVEC) which is the cell for promoting vascular re-endothelialization were purchased from Korea Cell Line Bank, respectively. The cell culture was performed by culturing the vascular smooth muscle cell (SMC) and the human umbilical vein endothelial cell (HUVEC) in Dulbecoco's modified eagle medium (DMEM) with 10% fetal bovine serum (FBS) under conditions of 37° C. and 5% CO2. […]
(§1) 5×10^4 of SMC cells cultured according to Example 2 were cultured in the 24-well cell culture plate and then treated with 1 uM of the peptide compound prepared by Example 2 (hereinafter, referred to as ‘EVR-P’). […] After the reaction, 200 ul of the culture medium was transferred from each well to a 96 well cell culture dish, and degree of color change was measured from absorbance at a 450 nm wavelength by a spectroscopy.
as §1, with “the known Everolimus (EVR)(LC Laboratories).” for “the peptide compound prepared by Example 2 (hereinafter, referred to as ‘EVR-P’).”, “to the” for “to a”

Compound: CO[C@H]1C[C@@H]2CC[C@@H](C)[C@@](O)(O2)C(=O)C(=O)N2CCCC[C@H]2C(=O)O[C@H]([C@H](C)C[C@@H]2CC[C@@H](OCCO)[C@H](OC)C2)CC(=O)[C@H](C)/C=C(\C)[C@@H](O)[C@@H](OC)C(=O)[C@H](C)C[C@H](C)/C=C/C=C/C=C/1C [EVR, Everolimus]
- SMC cell proliferation: cell proliferation was inhibited
